Legend:
[1] = log P by HPLC on reversed-phase column (C 18), EEC Directive 79/831 Annex V.A8; format: physicochemical; details: 55° C.; for LOGP_HCOOH: log P (HCOOH)
Protocol: Temperature: 55° C. […] Called log P (HCOOH) in the table. […] Called log P (neutral) in the table.

Lucilia cuprina = Lucilia cuprina test; format: in vivo; details: application rate 100 ppm, after 2 days, L1 larvae
Outline: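 Percent mortality read at day 2, where 100% means all larvae dead. Roughly 20 L1 larvae were exposed on minced horsemeat treated with a DMSO/water formulation at the desired concentration.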

Ctenocephalides felis [2] = assay: Ctenocephalides felis oral test; format: in vivo; details: application rate 100 ppm in citrated cattle blood, after 2 days, adult cat fleas
Outline: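 Kill (%) was recorded at 2 days. Compound, dissolved in DMSO and diluted into citrated cattle blood, was offered to roughly 20 unfed adult C. felis through parafilm.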

Spodoptera frugiperda = Spodoptera frugiperda spray test; format: in vivo; details: after 7 days, maize leaf discs
Outline: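 Efficacy in % was scored at 7 days against armyworm caterpillars placed on dried, compound-sprayed Zea mays leaf discs. Compound was dissolved in acetone/dimethylformamide and diluted in water with 1000 ppm alkylaryl polyglycol ether. 100% means all caterpillars were killed.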

Boophilus microplus = Boophilus microplus injection test; format: in vivo; details: application rate 20 μg/animal, assessed after 7 days, engorged adult female cattle ticks
Protocol: Boophilus microplus—Injection Test
Solvent: dimethyl sulphoxide
To produce a suitable active ingredient formulation, 10 mg of active ingredient are mixed with 0.5 ml of solvent and the concentrate is diluted to the desired concentration with solvent.
1 μl of the active ingredient solution is injected into the abdomen of 5 engorged adult female cattle ticks (Boophilus microplus). The animals are transferred into dishes and kept in a climate-controlled room.
Efficacy is assessed after 7 days by laying of fertile eggs. Eggs which are not visibly fertile are stored in a climate-controlled cabinet until the larvae hatch after about 42 days. An efficacy of 100% means that none of the ticks has laid any fertile eggs; 0% means that all the eggs are fertile.

Musca domestica = Musca domestica test; format: in vivo; details: after 2 days, adult houseflies
Protocol: Musca domestica Test Solvent: dimethyl sulphoxide To produce a suitable active ingredient formulation, 10 mg of active ingredient are mixed with 0.5 ml of dimethyl sulphoxide, and the concentrate is diluted with water to the desired concentration. Vessels containing a sponge treated with sugar solution and the active ingredient formulation of the desired concentration are populated with 10 adult houseflies (Musca domestica). After 2 days, the kill in % is determined. 100% means that all of the flies have been killed; 0% means that none of the flies have been killed.

Phaedon cochleariae = Phaedon cochleariae spray test; format: in vivo; details: after 7 days, Chinese cabbage leaf discs
Outline: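 Larval kill read at day 7 as percent, where 100% means every larva dead and 0% none; larvae were placed on dried Brassica pekinensis leaf discs previously sprayed with the formulation (acetone/dimethylformamide solvent, alkylaryl polyglycol ether emulsifier, water).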

Meloidogyne incognita = Meloidogyne incognita test; format: in vivo; details: application rate 20 ppm, after 14 days, lettuce
Protocol: Meloidogyne incognita Test Solvent: 125.0 parts by weight of acetone To produce a suitable active ingredient formulation, 1 part by weight of active ingredient is mixed with the stated amount of solvent and the concentrate is diluted with water to the desired concentration. Vessels are filled with sand, active ingredient solution, an egg/larvae suspension of the southern root-knot nematode (Meloidogyne incognita) and lettuce seeds. The lettuce seeds germinate and the plants develop. The galls develop on the roots. After 14 days, the nematicidal efficacy in % is determined by the formation of galls. 100% means that no galls were found; 0% means that the number of galls on the treated plants corresponds to the untreated control.

Tetranychus urticae = Tetranychus urticae spray test, OP-resistant; format: in vivo; details: application rate 500 g/ha, after 6 days, bean leaf discs
Protocol: Tetranychus urticae—Spray Test, OP-Resistant
Solvent: 78.0 parts by weight of acetone • • 1.5 parts by weight of dimethylformamide
(§1) Emulsifier: alkylaryl polyglycol ether
(§2) To produce a suitable active ingredient formulation, 1 part by weight of active ingredient is dissolved with the specified parts by weight of solvent and made up with water containing an emulsifier concentration of 1000 ppm until the desired concentration is attained. To produce further test concentrations, the formulation is diluted with emulsifier-containing water.
Discs of bean leaves (Phaseolus vulgaris) infested with all stages of the greenhouse red spider mite (Tetranychus urticae) are sprayed with an active ingredient formulation of the desired concentration.
After 6 days, the efficacy in % is determined. 100% means that all the spider mites have been killed; 0% means that no spider mites have been killed.

Ctenocephalides felis [3] = assay: Ctenocephalides felis in vitro contact test with adult cat fleas; format: in vivo; details: application rate 5 μg/cm^2 (500 g/ha), after 48 h
Protocol: Ctenocephalides felis—In Vitro Contact Tests with Adult Cat Fleas
For the coating of the test tubes, 9 mg of active ingredient are first dissolved in 1 ml of acetone p.a. and then diluted to the desired concentration with acetone p.a. 250 μl of the solution are distributed homogeneously on the inner walls and the base of a 25 ml glass tube by turning and rocking on an orbital shaker (rocking rotation at 30 rpm for 2 h). With 900 ppm of active ingredient solution and internal surface area 44.7 cm^2, given homogeneous distribution, an area-based dose of 5 μg/cm^2 is achieved.
After the solvent has evaporated off, the tubes are populated with 5-10 adult cat fleas (Ctenocephalides felis), sealed with a perforated plastic lid and incubated in a horizontal position at room temperature and ambient humidity. After 48 h, efficacy is determined. To this end, the tubes are stood upright and the fleas are knocked to the base of the tube. Fleas which remain motionless at the base or move in an uncoordinated manner are considered to be dead or moribund.
100% efficacy means that all the fleas were dead or moribund. 0% efficacy means that no fleas were harmed.

Myzus persicae = Myzus persicae spray test; format: in vivo; details: application rate 500 g/ha, after 6 days, Chinese cabbage leaf discs
Protocol: Myzus persicae—Spray Test
Solvent: 78 parts by weight of acetone • • 1.5 parts by weight of dimethylformamide
as §1, §2
Discs of Chinese cabbage leaves (Brassica pekinensis) infested by all stages of the green peach aphid (Myzus persicae) are sprayed with an active ingredient formulation of the desired concentration.
After 6 days, the efficacy in % is determined. 100% means that all the aphids have been killed; 0% means that no aphids have been killed.

[4] = acidic range at pH 2.7, 0.1% aqueous formic acid and acetonitrile, HPLC on reversed-phase column (C 18)
[5] = log P, neutral range, HPLC on reversed-phase column (C 18)
[6] = acidic range pH 2.7, 0.1% aqueous formic acid and acetonitrile, reversed-phase column (C 18)

LOGP_HCOOH [1, 4] | LOGP_NEUTRAL [1, 5] | LOGP_HCOOH [1, 6] | LOGP_NEUTRAL ([1]; log P (neutral), HPLC reversed-phase column (C 18)) | Structure (SMILES) | efficacy (kill in %) (Lucilia cuprina) [%] | efficacy (kill in %) (Ctenocephalides felis [2]) [%] | efficacy (caterpillars killed) (Spodoptera frugiperda; application rate 100 g/ha) [%] | efficacy (caterpillars killed) (Spodoptera frugiperda; application rate 500 g/ha) [%] | efficacy (no laying of fertile eggs) (Boophilus microplus) [%] | efficacy (kill in %) (Musca domestica; application rate 100 ppm) [%] | efficacy (beetle larvae killed) (Phaedon cochleariae; application rate 100 g/ha) [%] | efficacy (beetle larvae killed) (Phaedon cochleariae; application rate 500 g/ha) [%] | nematicidal efficacy (formation of galls) (Meloidogyne incognita) [%] | efficacy (spider mites killed) (Tetranychus urticae) [%] | efficacy (fleas dead or moribund) (Ctenocephalides felis [3]) [%] | efficacy (aphids killed) (Myzus persicae) [%] | efficacy (kill in %) (Musca domestica; application rate 20 ppm) [%]
3.09 | 3.50 | – | – | N#Cc1ccc(CNC(=O)c2cc(-c3ccc([S+]([O-])C(F)(F)F)cc3)cc(NC(=O)C3CC3)n2)cc1 (stereo not shown) [Example I-151] | 100 | 100 | 100 | 100 | 80 | 100 | 100 | 100 | – | – | – | – | –
– | 3.87 | 3.99 | – | CC(C)C(=O)Nc1cc(-c2ccc(OC(F)(F)F)cc2)cc(C(=O)NCc2ccc(-c3cnco3)cc2)n1 [Example I-104] | 100 | 80 | – | – | 95 | – | – | – | 90 | 90 | – | – | –
3.88 | 3.93 | – | – | O=C(NC1CSC1)c1cc(-c2ccc(OC(F)(F)F)cc2)cc(NC(=O)C2CC2)n1 [Example I-162] | – | 100 | 100 | 100 | – | – | 100 | 100 | 90 | – | 100 | – | –
– | 3.01 | 3.05 | – | N#CCNC(=O)c1cc(-c2ccc(C(F)(F)F)cc2)cc(NC(=O)C2CC2)n1 [Example I-025] | – | 98 | 100 | 100 | – | – | – | 100 | 100 | – | – | – | –
3.41 | 3.33 | – | – | CCNC(=O)c1cc(-c2ccc(OC(F)(F)F)cc2)cc(NC(=O)C2CC2)n1 [Example I-118] | – | 100 | 100 | 100 | – | – | 100 | 100 | – | – | 100 | – | –
3.84 | – | – | – | CC1(NC(=O)c2cc(-c3ccc(OC(F)(F)F)cc3)cc(NC(=O)C3CC3)n2)CC1 [Example I-128] | 100 | 100 | 100 | 100 | – | – | 100 | 100 | – | – | 100 | – | –
3.85 | 3.74 | – | – | O=C(NC1CC1(F)F)c1cc(-c2ccc(OC(F)(F)F)cc2)cc(NC(=O)C2CC2)n1 (stereo not shown) [Example I-216] | 80 | 100 | 100 | 100 | – | – | 100 | 100 | – | – | 100 | – | –
3.25 | 3.17 | – | – | COC(=O)C1(NC(=O)c2cc(-c3ccc(OC(F)(F)F)cc3)cc(NC(=O)C3CC3)n2)COC1 [Example I-175] | – | – | – | – | – | – | – | – | – | – | – | 90 | –
– | – | 3.55 | 3.58 | O=C(NCc1ccc(N2CCCC2=O)cc1)c1cc(-c2ccc(OC(F)(F)F)cc2)cc(NC(=O)C2CC2)n1 [Example I-259] | – | – | – | 100 | – | – | – | 83 | 90 | – | – | – | –
3.42 | – | – | – | COC(=O)C1(NC(=O)c2cc(-c3ccc(OC(F)(F)F)cc3)cc(NC(=O)C3CC3)n2)CC1 [Example I-138] | 100 | 100 | 100 | 100 | – | 100 | 100 | 100 | 90 | – | 100 | – | –
3.76 | 3.66 | – | – | N#CC1CCC(NC(=O)c2cc(-c3ccc(OC(F)(F)F)cc3)cc(NC(=O)C3CC3)n2)CC1 (stereo not shown) [Example I-197] | 100 | 100 | 100 | 100 | – | 80 | 83 | 100 | – | – | 100 | – | 100
– | 3.37 | 3.37 | – | O=C(NC1CC1)c1cc(-c2ccc(C(F)(F)F)cc2)cc(NC(=O)C2CC2)n1 [Example I-013] | 100 | 100 | 100 | 100 | – | 100 | 100 | 100 | – | – | 80 | – | –
